± gives the expanded uncertainty stated by the source.
Conditions: Liquid, Vibrating tube method

FC(F)CC(F)(F)F [1,1,1,3,3-pentafluoropropane]
mass density [kg/m3]
Conditions	293.84 K	303.46 K	313.18 K	323 K	332.83 K	343.01 K	353 K	362.91 K	372.94 K
1000 kPa	1352.16 ± 1.4	1326.31 ± 1.5	1299.2 ± 1.5	1270.55 ± 1.6	1240.26 ± 1.7	1206.92 ± 1.9	–	–	–
3000 kPa	1357.97 ± 1.4	1332.8 ± 1.4	1306.56 ± 1.5	1278.98 ± 1.6	1250.02 ± 1.7	1218.46 ± 1.8	1185.75 ± 2	1150.79 ± 2.2	1112.26 ± 2.5
5000 kPa	1363.53 ± 1.4	1338.98 ± 1.4	1313.51 ± 1.4	1286.86 ± 1.5	1259.06 ± 1.6	1228.97 ± 1.7	1198.11 ± 1.8	1165.55 ± 1.9	1130.36 ± 2.2
10000 kPa	1376.42 ± 1.4	1353.32 ± 1.4	1329.44 ± 1.4	1304.71 ± 1.5	1279.16 ± 1.5	1251.88 ± 1.6	1224.38 ± 1.7	1195.94 ± 1.8	1165.97 ± 1.9
15000 kPa	1388.34 ± 1.4	1366.31 ± 1.4	1343.73 ± 1.4	1320.47 ± 1.4	1296.63 ± 1.5	1271.37 ± 1.5	1246.17 ± 1.6	1220.45 ± 1.6	1193.67 ± 1.7
20000 kPa	1399.29 ± 1.4	1378.22 ± 1.4	1356.77 ± 1.4	1334.65 ± 1.4	1312.15 ± 1.4	1288.45 ± 1.5	1265.01 ± 1.5	1241.23 ± 1.6	1216.58 ± 1.6
25000 kPa	1409.54 ± 1.4	1389.33 ± 1.4	1368.61 ± 1.4	1347.58 ± 1.4	1326.17 ± 1.4	1303.77 ± 1.4	1281.67 ± 1.5	1259.38 ± 1.5	1236.4 ± 1.5
30000 kPa	1419.03 ± 1.4	1399.65 ± 1.4	1379.73 ± 1.4	1359.46 ± 1.4	1339.02 ± 1.4	1317.65 ± 1.4	1296.64 ± 1.5	1275.54 ± 1.5	1253.82 ± 1.5
35000 kPa	1428.09 ± 1.5	1409.33 ± 1.4	1390.16 ± 1.4	1370.64 ± 1.4	1350.93 ± 1.4	1330.42 ± 1.4	1310.33 ± 1.5	1290.2 ± 1.5	1269.55 ± 1.5
40000 kPa	1436.79 ± 1.5	1418.45 ± 1.5	1399.89 ± 1.5	1381.03 ± 1.5	1362.03 ± 1.5	1342.2 ± 1.5	1322.95 ± 1.5	1303.67 ± 1.5	1283.89 ± 1.5
50000 kPa	1452.73 ± 1.6	1435.43 ± 1.6	1417.82 ± 1.6	1400.08 ± 1.6	1382.12 ± 1.5	1363.61 ± 1.5	1345.62 ± 1.5	1327.67 ± 1.5	1309.28 ± 1.5
60000 kPa	1467.39 ± 1.7	1450.88 ± 1.7	1434.07 ± 1.7	1417.12 ± 1.6	1400.21 ± 1.6	1382.71 ± 1.6	1365.63 ± 1.6	1348.77 ± 1.6	1331.43 ± 1.6
70000 kPa	1480.99 ± 1.9	1465.1 ± 1.8	1449.07 ± 1.8	1432.87 ± 1.8	1416.64 ± 1.8	1399.92 ± 1.7	1383.75 ± 1.7	1367.68 ± 1.7	1351.23 ± 1.6
